How the values were obtained:
Human LBAT = target: T1, Human LBAT (Homo sapiens, UniProt Q14973); assay: LBAT (h/m) assay: 3H-taurocholic acid uptake in human LBAT-overexpressing cells; format: cell-based; conditions: 0.3 μM 3H-taurocholic acid and 7.5 μM cold taurocholic acid, 20 minutes, read-out: hLBAT IC50
T1 construct: expressed in transfected cells; kept under Geneticin selection
T1 sequence (Q14973 1-349): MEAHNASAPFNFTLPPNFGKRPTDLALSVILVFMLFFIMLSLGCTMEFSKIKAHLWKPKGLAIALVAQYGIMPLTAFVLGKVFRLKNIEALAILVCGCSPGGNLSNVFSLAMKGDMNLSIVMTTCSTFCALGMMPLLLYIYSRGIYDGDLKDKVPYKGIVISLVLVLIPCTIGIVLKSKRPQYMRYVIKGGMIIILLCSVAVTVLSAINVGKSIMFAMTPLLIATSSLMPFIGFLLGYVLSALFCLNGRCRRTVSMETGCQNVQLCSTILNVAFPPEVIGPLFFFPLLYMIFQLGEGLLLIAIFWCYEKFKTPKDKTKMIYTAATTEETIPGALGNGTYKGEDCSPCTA
Procedure, shortened: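 LBAT-overexpressing cells, serum-free MEM-alpha, 20 min at 37° C with inhibitor (3-fold, 10-point) plus 0.3 μM 3H-taurocholic acid and cold taurocholic acid (7.5 μM human; 25 μM mouse), 0.2% DMSO. Stopped on ice, washed with 1 mM unlabelled taurocholate; uptake by scintillation counting.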

HepaRG cells = assay: HepaRG-based assay: 3H-taurocholic acid uptake in differentiated HepaRG cells; format: cell-based; conditions: Homo sapiens, HepaRG, 0.3 μM 3H-taurocholic acid and 7.5 μM cold taurocholic acid, 30 minutes
Procedure, shortened: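 Differentiated HepaRG cells cultured 7 days post-seeding were exposed for 30 min at 37 °C to 0.3 μM 3H-taurocholic acid plus 7.5 μM cold taurocholic acid with inhibitor (3-fold dilutions, 0.2% DMSO). Uptake was stopped on ice, washed with 1 mM unlabelled taurocholic acid, and counted by scintillation.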

[1] = Bioavailability studies in mice; format: in vivo; conditions: mouse; C57BL/6 mice; single intravenous dose 1 mg/kg vs single oral dose 10 mg/kg; plasma LC-MS/MS
Description: C57BL/6 mice of 8-9 weeks old were used. For each test compound, two groups of 3 animals each were used. One group was administered a single intravenous dose of 1 mg/kg (vehicle 100% DMSO) through the tail vein and the other group was administered a single oral dose of 10 mg/kg through gavage needle. The group that was administered an oral dose was fasted overnight. Blood samples were collected after 0.083, 0.25, 0.5, 1, 2, 4, 6, 8 and 24 hours following intravenous administration, and after 0.25, 0.5, 1, 2, 4, 6, 8 and 24 hours following oral administration. Blood samples were taken from saphenous vein. 0.2% EDTA was used as the anticoagulant. The samples were analyzed by a discovery grade bioanalytical method developed for the estimation of test compound in plasma, using an LC-MS/MS system.

Human ASBT = target: T2, Human ASBT (Homo sapiens, UniProt Q12908); assay: ASBT (h/m) assay: 3H-taurocholic acid uptake in human ASBT-overexpressing cells; format: cell-based; conditions: 0.25 μM 3H-taurocholic acid and 5 μM cold taurocholic acid, 20 minutes, read-out: hASBT IC50
T2 construct: expressed in transfected cells; kept under Puromycin selection
T2 sequence (Q12908 1-348): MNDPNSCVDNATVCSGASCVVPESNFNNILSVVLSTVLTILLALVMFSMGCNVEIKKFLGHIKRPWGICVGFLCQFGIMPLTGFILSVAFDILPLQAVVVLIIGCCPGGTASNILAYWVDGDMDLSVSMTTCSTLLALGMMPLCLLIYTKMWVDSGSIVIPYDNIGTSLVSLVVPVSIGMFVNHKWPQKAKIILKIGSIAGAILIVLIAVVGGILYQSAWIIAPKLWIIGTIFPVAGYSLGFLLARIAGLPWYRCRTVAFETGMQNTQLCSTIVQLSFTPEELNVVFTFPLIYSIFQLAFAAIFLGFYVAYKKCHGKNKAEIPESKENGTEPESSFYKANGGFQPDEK
Procedure, shortened: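 ASBT-overexpressing cells, seeded 48 h earlier, took up 0.25 µM 3H-taurocholic acid plus 5 µM cold taurocholate for 20 min at 37 °C with inhibitor (10-point 3-fold series, top 10 µM, 0.2% DMSO). Ice stop, washes with cold 1 mM taurocholate in HEPES-HBSS pH 7.4, scintillation counting.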

`CCCC[C@@]1(CC)CN(c2ccccc2)c2cc(SC)c(O/C=C(\F)C(=O)O)cc2S(=O)(=O)N1C` (single isomer, unassigned) [Example 99] gave an IC50 (Human LBAT) of 4.4 nM, an IC50 (HepaRG cells) of 325 nM and a bioavailability [1] of 20%.
With `CCC1(CC)CN(c2ccccc2)c2cc(Br)c(O/C=C/C(=O)O)cc2S(=O)(=O)C1` [Example 55, (E)-3-((7-bromo-3,3-diethyl-1,1-dioxido-5-phenyl-2,3,4,5-tetrahydro-1,5-benzothiazepin-8-yl)oxy)acrylic Acid] the IC50 (Human LBAT) was 100 nM, the IC50 (HepaRG cells) was 328 nM and the IC50 (Human ASBT) was 487 nM.
In the case of `CCC1(CC)CN(c2ccccc2)c2cc(Br)c(O/C=C(\F)C(=O)O)cc2S(=O)(=O)C1` [Example 56, (Z)-3-((7-bromo-3,3-diethyl-1,1-dioxido-5-phenyl-2,3,4,5-tetrahydro-1,5-benzothiazepin-8-yl)oxy)-2-fluoroacrylic Acid], the IC50 (Human LBAT) is reported as 37 nM, the IC50 (HepaRG cells) is reported as 175 nM and the IC50 (Human ASBT) is reported as 380 nM.
With `CCCCC1(CC)CN(c2ccc(C(=O)NC(C)(C)C)cc2)c2cc(SC)c(O/C=C/C(=O)O)cc2S(=O)(=O)C1` (stereo not drawn) [Example 62, (E)-3-((3-butyl-5-(4-(tert-butylcarbamoyl)phenyl)-3-ethyl-7-(methylthio)-1,1-dioxido-2,3,4,5-tetrahydro-1,5-benzothiazepin-8-yl)oxy)acrylic Acid] the IC50 (Human LBAT) was 235 nM, the IC50 (HepaRG cells) was 772 nM and the IC50 (Human ASBT) was > 20000 nM.
`CCC1(CC)CN(c2ccc(NCc3ccccc3)cc2)c2cc(SC)c(O/C=C(\F)C(=O)O)cc2S(=O)(=O)C1` [Example 66, (Z)-3-((5-(4-(benzylamino)phenyl)-3,3-diethyl-7-(methylthio)-1,1-dioxido-2,3,4,5-tetrahydro-1,5-benzothiazepin-8-yl)oxy)-2-fluoroacrylic Acid] showed an IC50 (Human LBAT) of 30 nM, an IC50 (HepaRG cells) of 518 nM and an IC50 (Human ASBT) of 2760 nM.
For `CCCCC1(CCCC)CN(c2ccc(C(=O)NC(C)(C)C)cc2)c2cc(SC)c(O/C=C/C(=O)O)cc2S(=O)(=O)C1` [Example 68, (E)-3-((3,3-dibutyl-5-(4-(tert-butylcarbamoyl)phenyl)-7-(methylthio)-1,1-dioxido-2,3,4,5-tetrahydro-1,5-benzothiazepin-8-yl)oxy)acrylic Acid], the IC50 (Human LBAT) was 130 nM, the IC50 (HepaRG cells) was 344 nM and the IC50 (Human ASBT) was 6670 nM.
In the case of `CCCCC1(CCCC)CN(c2ccc(C(=O)NC(C)C)cc2)c2cc(SC)c(O/C=C/C(=O)O)cc2S(=O)(=O)C1` [Example 69, (E)-3-((3,3-dibutyl-5-(4-(isopropylcarbamoyl)phenyl)-7-(methylthio)-1,1-dioxido-2,3,4,5-tetrahydro-1,5-benzothiazepin-8-yl)oxy)acrylic Acid], the IC50 (Human LBAT) is reported as 364 nM, the IC50 (HepaRG cells) is reported as 630 nM and the IC50 (Human ASBT) is reported as > 3000 nM.
For `CCCCC1(CCCC)CN(c2ccccc2)c2cc(SCC)c(O/C=C(\F)C(=O)O)cc2S(=O)(=O)C1` [Example 70, (Z)-3-((3,3-dibutyl-7-(ethylthio)-1,1-dioxido-5-phenyl-2,3,4,5-tetrahydro-1,5-benzothiazepin-8-yl)oxy)-2-fluoroacrylic Acid], the IC50 (Human LBAT) was 81 nM, the IC50 (HepaRG cells) was 716 nM and the IC50 (Human ASBT) was 125 nM.
With `CCCCC1(CCCC)CN(c2ccc(NC(=O)CC)cc2)c2cc(SC)c(O/C=C(\F)C(=O)O)cc2S(=O)(=O)C1` [Example 71, (Z)-3-((3,3-dibutyl-7-(methylthio)-1,1-dioxido-5-(4-propionamidophenyl)-2,3,4,5-tetrahydro-1,5-benzothiazepin-8-yl)oxy)-2-fluoroacrylic Acid] the IC50 (Human LBAT) was 47 nM, the IC50 (HepaRG cells) was 296 nM and the IC50 (Human ASBT) was > 3000 nM.
With `CCCCC1(CC)CN(c2ccccc2)c2cc(SCC)c(O/C=C(\F)C(=O)O)cc2S(=O)(=O)C1` (stereo not drawn) [Example 72, (Z)-3-((3-butyl-3-ethyl-7-(ethylthio)-1,1-dioxido-5-phenyl-2,3,4,5-tetrahydro-1,5-benzothiazepin-8-yl)oxy)-2-fluoroacrylic Acid] the IC50 (Human LBAT) was 13 nM, the IC50 (HepaRG cells) was 319 nM and the IC50 (Human ASBT) was 76 nM.
For `CCCCC1(CC)CN(c2ccccc2)c2cc(SCC)c(O/C=C/C(=O)O)cc2S(=O)(=O)C1` (stereo not drawn) [Example 73, (E)-3-((3-butyl-3-ethyl-7-(ethylthio)-1,1-dioxido-5-phenyl-2,3,4,5-tetrahydro-1,5-benzothiazepin-8-yl)oxy)acrylic Acid], the IC50 (Human LBAT) was 120 nM, the IC50 (HepaRG cells) was 766 nM and the IC50 (Human ASBT) was 155 nM.
In the case of `CCCCC1(CCCC)CN(c2ccccc2)c2cc(SC)c(O/C=C(\C)C(=O)O)cc2S(=O)(=O)N1` [Example 74, (E)-3-((3,3-dibutyl-7-(methylthio)-1,1-dioxido-5-phenyl-2,3,4,5-tetrahydro-1,2,5-benzothiadiazepin-8-yl)oxy)-2-methylacrylic Acid], the IC50 (Human LBAT) is reported as 649 nM, the IC50 (HepaRG cells) is reported as 3380 nM and the IC50 (Human ASBT) is reported as 57 nM.
With `CCCCC1(CCCC)CN(c2ccc(C(=O)NC(C)(C)C)cc2)c2cc(SC)c(O/C=C(\F)C(=O)O)cc2S(=O)(=O)C1` [Example 79, (Z)-3-((3,3-dibutyl-5-(4-(tert-butylcarbamoyl)phenyl)-7-(methylthio)-1,1-dioxido-2,3,4,5-tetrahydro-1,5-benzothiazepin-8-yl)oxy)-2-fluoroacrylic Acid] the IC50 (Human LBAT) was 8 nM, the IC50 (HepaRG cells) was 246 nM and the IC50 (Human ASBT) was > 1000 nM.
With `CCCCC1(CC)CN(c2ccccc2)c2cc(Br)c(O/C=C/C(=O)O)cc2S(=O)(=O)N1` (stereo not drawn) [Example 87, (E)-3-((7-bromo-3-butyl-3-ethyl-1,1-dioxido-5-phenyl-2,3,4,5-tetrahydro-1,2,5-benzothiadiazepin-8-yl)oxy)acrylic Acid] the IC50 (Human LBAT) was 220 nM, the IC50 (HepaRG cells) was 1080 nM and the IC50 (Human ASBT) was 157 nM.
Compound `CCCCC1(CCCC)CN(c2ccc(O)cc2)c2cc(SC)c(O/C=C(\F)C(=O)O)cc2S(=O)(=O)C1` [Example 95, (Z)-3-((3,3-dibutyl-5-(4-hydroxyphenyl)-7-(methylthio)-1,1-dioxido-2,3,4,5-tetrahydro-1,5-benzothiazepin-8-yl)oxy)-2-fluoroacrylic Acid] has an IC50 (Human LBAT) of 77 nM, an IC50 (HepaRG cells) of 1220 nM and an IC50 (Human ASBT) of 17 nM.
In the case of `CCCCC1(CC)CN(c2ccccc2)c2cc(F)c(O/C=C(\F)C(=O)O)cc2S(=O)(=O)C1` (stereo not drawn) [Example 96, (Z)-3-((3-butyl-3-ethyl-7-fluoro-1,1-dioxido-5-phenyl-2,3,4,5-tetrahydro-1,5-benzothiazepin-8-yl)oxy)-2-fluoroacrylic Acid], the IC50 (Human LBAT) is reported as 231 nM, the IC50 (HepaRG cells) is reported as 785 nM and the IC50 (Human ASBT) is reported as 15 nM.
For `CCCCC1(CC)CN(c2ccccc2)c2cc(Br)c(O/C=C(\F)C(=O)O)cc2S(=O)(=O)N1C` (stereo not drawn) [Example 106, (Z)-3-((7-bromo-3-butyl-3-ethyl-2-methyl-1,1-dioxido-5-phenyl-2,3,4,5-tetrahydro-1,2,5-benzothiadiazepin-8-yl)oxy)-2-fluoroacrylic Acid], the IC50 (Human LBAT) was 31 nM, the IC50 (HepaRG cells) was 246 nM and the IC50 (Human ASBT) was 673 nM.
For `CCCCC1(CCCC)CN(c2ccc(F)c(F)c2)c2cc(SC)c(O/C=C(\F)C(=O)O)cc2S(=O)(=O)C1` [Example 107, (Z)-3-((3,3-dibutyl-5-(3,4-difluorophenyl)-7-(methylthio)-1,1-dioxido-2,3,4,5-tetrahydro-1,5-benzothiazepin-8-yl)oxy)-2-fluoroacrylic Acid], the IC50 (Human LBAT) was 50 nM, the IC50 (HepaRG cells) was 365 nM and the IC50 (Human ASBT) was 59 nM.
Work on `CCCCC1(CC)CN(c2ccccc2)c2cc(N(C)C)c(O/C=C(\F)C(=O)O)cc2S(=O)(=O)C1` (stereo not drawn) [Example 108, (Z)-3-((3-butyl-7-(dimethylamino)-3-ethyl-1,1-dioxido-5-phenyl-2,3,4,5-tetrahydro-1,5-benzothiazepin-8-yl)oxy)-2-fluoroacrylic Acid] yielded an IC50 (Human LBAT) of 5.9 nM, an IC50 (HepaRG cells) of 447 nM and an IC50 (Human ASBT) of 8.5 nM.
